{
  "source": "patent US20210401931A1",
  "about": "“METHODS AND MATERIALS FOR TREATING CANCER” (Mayo Foundation for Medical Education and Research, priority 2018, published 2021)",
  "system": "PTEN-CaP8 tumors",
  "assay": "FACS of tumor-infiltrating immune cells in PTEN-CaP8 tumors",
  "type": "in vivo, mouse",
  "settings": "12 Gy",
  "description": "FIGS. 6A-J. The small S249/T252 phosphorylation-mimicking polypeptide of RB blocks irradiation-induced PD-L1 expression and inhibits cancer immune evasion. (A, B) PC-3 cells were infected with lentivirus expressing control shRNA or p65-specific or shRNA. 24 hours after puromycin selection, cells were treated with or without gamma irradiation (IR) (12 Gy). 48 hours after IR treatment, cells were harvested for western blotting analysis (A) and RT-qPCR analysis (B). All data were shown as mean values±SD (n=3). * P<0.05, ** P<0.01, *** P<0.001. (C, D) PC-3 cells were treated with without gamma irradiation (12 Gy). Cells were harvested at the indicated time point for western blotting analysis (C) and RT-qPCR analysis (D). All data were shown as mean values±SD (n=3). * P<0.05, ** P<0.01, *** P<0.001. (E) Western blot analysis of WCL and co-IP samples in PC-3 cells 48 hours after treated with or without gamma irradiation (12 Gy). […] (J) The absolute number of CD45^+CD8^+ T cells, CD45^+CD4^+ T cells, and CD11b^+Gr1^+ myeloid cells of implanted PTEN-CaP8 in tumors treated with indicated agents was analyzed by FACS. […]\nFor flow cytometry analysis of mouse tissue samples, tumors were cut into small pieces and digested with 2 mg/mL collagenase (Sigma) in DMEM for 1 hour at 37° C. […] After incubated with antibody for 30 minutes, cells were washed with PBS and analyzed on a flow cytometer.",
  "note": "Ends that are not written are not given here.",
  "data": [
    {"substance": "RL-S249D/T252D: S249/T252 phospho-mimicking R-Linker (RL) peptide: fragment of RB-N containing 21 amino acids surrounding S249/T252, expressed SFB-tagged or by lentivirus (NGDPRDPRRGQNRSARIAKQL; also: expressed SFB-tagged (tag left off))", "values": [
      {"measurement": "CD11b+Gr1+ myeloid cells in tumors, agent combined with irradiation", "result": "sharp decrease"},
      {"measurement": "CD45+CD8+ and CD45+CD4+ T cell infiltration in tumors, agent combined with irradiation", "result": "dramatic increase"}
    ]}
  ]
}
